{
  "source": "patent US12383567B2",
  "about": "“Use of cannabinoids in the treatment of epilepsy” (Jazz Pharmaceuticals Research UK Limited, priority 2017, dated 2025)",
  "test": "Drug-drug interaction between cannabidiol (CBD) and tacrolimus in an epilepsy patient (clinical trial, open label phase)",
  "type": "in vivo, human",
  "method": "The patient was a person with refractory epilepsy receiving the immunosuppressant drug tacrolimus for interstitial nephritis.\nThe patient had been stable on tacrolimus at a dose of 5 mg twice per day for a year prior to entry into a clinical trial on the use of CBD to treat childhood-onset epilepsy. At the time of entry into the study their blood level of tacrolimus was between 3.9 and 8.4 ng/mL.\nThe patient was initially randomized to the sesame oil placebo arm of the trial, during this phase there was no change in the levels of tacrolimus or serum creatine.\nThe dose of tacrolimus was reduced repeatedly while receiving CBD as described in FIG. 1. A dose of 0.5 mg twice per day (a 10-fold reduction) was finally reached.",
  "key": {"[1]": {"settings": "during the time the subject was taking CBD with tacrolimus"}},
  "data": [
    {"smiles": "C=C(C)[C@@H]1CCC(C)=C[C@H]1c1c(O)cc(CCCCC)cc1O", "note": "[CBD, Cannabidiol]", "values": [
      {"measurement": "blood urea nitrogen (BUN) change", "setting": "[1]", "value": "significant increase"},
      {"measurement": "serum creatine levels change", "setting": "[1]", "value": "significant increase"},
      {"measurement": "tacrolimus toxicity", "setting": "open label phase, receiving CBD concurrently with tacrolimus", "value": "signs of tacrolimus toxicity"}
    ]}
  ]
}
